Test results as given in article PMC7129073 (Clinical Microbiology and Infection, 2015).
≈ marks a conversion by molar mass, not a printed value. Entries after “also recorded” stand apart in the source; their conditions may differ. Marks after values point to notes of the source that are not given here.

How the values were obtained:
K. pneumoniae = test: E-test susceptibility; type: cell-based, Klebsiella pneumoniae
E. coli [1] = test: SMART 2003 Europe, microdilution; type: cell-based, Escherichia coli; settings: 1106 isolates
[2] = test system: E. coli (OXA 5 transformant); test: NCCLS agar dilution MIC; type: cell-based; settings: Escherichia coli
[3] = test system: P. aeruginosa strains from CF sputa; test: O-serotyping; type: cell-based, Pseudomonas aeruginosa; settings: exposure to 1/2–1/16 MIC (ceftazidime) or 1/2–1/8 MIC (ciprofloxacin)
[4] = test system: inducible Enterobacteriaceae; test: SMART 2003, intraabdominal isolates; type: cell-based
[5] = test system: Morganella morganii (ceftazidime R); test: NCCLS agar dilution MIC; type: cell-based; set-up: unit not given beside the values; settings: n=2
[6] = test system: E. coli (TEM 10 transformant); test: NCCLS agar dilution MIC; type: cell-based; settings: Escherichia coli
Escherichia coli (ECO) = test: Broth microdilution; type: cell-based; settings: 2001
[7] = test system: Pseudomonas putida clinical isolates; test: Agar dilution MIC; type: cell-based
Enterobacter spp = test: E-test susceptibility; type: cell-based
E. coli [8] = test: E-test susceptibility; type: cell-based, Escherichia coli
Escherichia coli = test: Vitek 2 susceptibility, urine isolates of children; type: cell-based
Acinetobacter = test: Disk diffusion; type: cell-based; settings: 37 isolates selected as resistant to beta-lactams
P. aeruginosa = type: cell-based, Pseudomonas aeruginosa
[9] = test system: E. coli (TEM 9 transformant); test: NCCLS agar dilution MIC; type: cell-based; settings: Escherichia coli, n=1 per table line (three lines)
K. oxytoca = test: E-test susceptibility; type: cell-based, Klebsiella oxytoca
Enterobacteriaceae = test: SMART 2003 Europe, microdilution; type: cell-based; settings: 1948 isolates
Klebsiella = test: SMART 2003 Europe, microdilution; type: cell-based, Klebsiella spp.; settings: 341 isolates
Pseudomonas aeruginosa = test: MIC, strains from cystic fibrosis patients; settings: by MIC
M. catarrhalis = test: MIC, NCCLS methods; type: cell-based; settings: Moraxella catarrhalis
S. progenies = test: MIC, NCCLS methods; type: cell-based; settings: Streptococcus pyogenes
B. pertussis = test: MIC, NCCLS methods; type: cell-based; settings: N=10
S. aureus (MR) = test: MIC, NCCLS methods; type: cell-based; settings: Staphylococcus aureus
Streptococcus spp = test: MIC, NCCLS methods; type: cell-based
E. faecalis = test: MIC, NCCLS methods; type: cell-based; settings: Enterococcus faecalis
E. faecium = test: MIC, NCCLS methods; type: cell-based; settings: Enterococcus faecium
[10] = test system: methicillin resistant Staphylococcus aureus; test: NCCLS agar dilution MIC; type: cell-based; settings: Staphylococcus aureus
H. influenzae = test: MIC, NCCLS methods; type: cell-based; settings: Haemophilus influenzae
S. pneumoniae = test: MIC, NCCLS methods; type: cell-based; settings: Streptococcus pneumoniae
S. aureus (MS) = test: MIC, NCCLS methods; type: cell-based; settings: Staphylococcus aureus
N meningitidis = test: MIC, NCCLS methods; type: cell-based
A. haemolyticum = test: MIC, NCCLS methods; type: cell-based; settings: N=9
H. parainfluenzae = test: MIC, NCCLS methods; type: cell-based; settings: Haemophilus parainfluenzae
[11] = test system: methicillin susceptible Staphylococcus aureus; test: NCCLS agar dilution MIC; type: cell-based; settings: Staphylococcus aureus
[12] = test system: Citrobacter freundii (ceftazidime R); test: NCCLS agar dilution MIC; type: cell-based; settings: n=6

CC(C)(O/N=C(\C(=O)N[C@@H]1C(=O)N2C(C(=O)[O-])=C(C[n+]3ccccc3)CS[C@H]12)c1csc(N)n1)C(=O)O [ceftazidime]
Susceptible isolates (K. pneumoniae; ICU): 98% | Susceptible isolates (K. pneumoniae; non ICU): 100% | per cent susceptible (E. coli [1]): 96% | MIC [2]: 64 µg/mL (≈ 117 µM) | change of agglutination type of nine monoagglutinable strains [3]: seven strains have become auto-agglutinable; also recorded: two strains have become polyagglutinable | % susceptible ([4]; A/P (N = 200)): 59% | % susceptible ([4]; EU (N = 354)): 75% | % susceptible ([4]; LA (N=113)): 69% | % susceptible ([4]; NA (N = 163)): 71% | MIC (two isolates) [5]: 16/64 | MIC [6]: > 128 µg/mL | susceptible (Escherichia coli (ECO); NAL-resistant isolates): 93.3% | susceptible (Escherichia coli (ECO); NAL-susceptible isolates): 99.0% | MIC [7]: > 128 µg/mL | Susceptible isolates (Enterobacter spp; ICU): 75% | Susceptible isolates (Enterobacter spp; non ICU): 89% | Susceptible isolates (E. coli [8]; ICU, SRGA breakpoints, tigecycline tentative S ≤2 μg/ml): 98% | Susceptible isolates (E. coli [8]; non ICU): 99% | susceptibility rate (Escherichia coli; paediatric surgical unit (PSU)): 39% | susceptibility rate (Escherichia coli; paediatric units (PU)): 95% | resistant isolates (Acinetobacter): 56.8% | resistant (P. aeruginosa): 32% | MIC [9]: > 128 µg/mL | Susceptible isolates (K. oxytoca; ICU): 100/100% | Susceptible isolates (K. oxytoca; non ICU): 100/100% | per cent susceptible (Enterobacteriaceae): 92% | per cent susceptible (Klebsiella): 94% | Susceptible isolates (Pseudomonas aeruginosa): 84%

CC[C@H]1OC(=O)[C@H](C)[C@@H](O[C@H]2C[C@@](C)(OC)[C@@H](O)[C@H](C)O2)[C@H](C)[C@@H](O[C@@H]2O[C@H](C)C[C@H](N(C)C)[C@H]2O)[C@](C)(O)C[C@@H](C)C(=O)[C@H](C)[C@@H](O)[C@]1(C)O [Erythromycin A, erythromycin A]
MIC50 (M. catarrhalis): 0.12 µg/mL (≈ 0.164 µM) | MIC90 (M. catarrhalis): 0.12 µg/mL (≈ 0.164 µM) | MIC50 (S. progenies): > 64 µg/mL | MIC90 (S. progenies): > 64 µg/mL | MIC range (B. pertussis): 0.06 to 0.12 µg/mL | MIC50 (S. aureus (MR)): > 64 µg/mL | MIC90 (S. aureus (MR)): > 64 µg/mL | MIC50 (Streptococcus spp): 0.06 µg/mL (≈ 0.0818 µM) | MIC90 (Streptococcus spp): 0.12 µg/mL (≈ 0.164 µM) | MIC50 (E. faecalis): > 64 µg/mL | MIC90 (E. faecalis): > 64 µg/mL | MIC50 (E. faecium): > 64 µg/mL | MIC90 (E. faecium): > 64 µg/mL | MIC50 [10]: > 64 µg/mL | MIC90 [10]: > 64 µg/mL | MIC50 (H. influenzae): 4 µg/mL (≈ 5.45 µM) | MIC90 (H. influenzae): 8 µg/mL (≈ 10.9 µM) | MIC50 (S. pneumoniae): > 32 µg/mL | MIC90 (S. pneumoniae): > 32 µg/mL | MIC50 (S. aureus (MS)): 0.25 µg/mL (≈ 0.341 µM) | MIC90 (S. aureus (MS)): > 64 µg/mL | MIC50 (N meningitidis): 0.12 µg/mL (≈ 0.164 µM) | MIC90 (N meningitidis): 0.25 µg/mL (≈ 0.341 µM) | MIC range (A. haemolyticum): ≤0.015-0.03 ^* mg/L | MIC50 (H. parainfluenzae): 2 µg/mL (≈ 2.73 µM) | MIC90 (H. parainfluenzae): 8 µg/mL (≈ 10.9 µM) | MIC50 [11]: 0.25 µg/mL (≈ 0.341 µM) | MIC90 [11]: > 64 µg/mL

C[C@H]1[C@H](NC(=O)/C(=N\OC(C)(C)C(=O)O)c2csc(N)n2)C(=O)N1S(=O)(=O)O [aztreonam]
MIC [2]: 16 µg/mL (≈ 36.7 µM) | MIC (two isolates) [5]: 2/8 | MIC [6]: 32 µg/mL (≈ 73.5 µM) | MIC range [12]: 4 to 64 µg/mL
